Measured values taken from US12365695B2, “Fused ring heteroaryl compounds as RIPK1 inhibitors” (BiSiChem Co., Ltd., priority 2019, dated 2025).

Tested on: HT-29 cells
Assay: Cell-based necroptosis assay for RIPK1 activity (cell viability, CCK-8)
Settings: HT29 (human colon cancer), Z-VAD-FMK 20 μM, human TNFα 10 ng/ml, SM-164 100 nM, 24 h, read-out: Necroptosis inhibition (IC50)
Experimental: Human colon carcinoma cell HT-29 (KCLB 30038), BV2 mouse microglial cell (cell was a kind gift from Dr. Nak-Yun Sung, Senior researcher at Korea Prime Pharmacy CO., LTD.) and human microglial cell HMC3 (ATCC® CRL-3304™). HT-29 cell was grown in Roswell Park Memorial Institute (RPMI) 1640, BV2 cell was grown in Dulbecco's Modified Eagle's Medium (DMEM) and HMC3 cell was grown in Minimum Essential Media Eagle (MEM) supplemented with 10% fetal bovine serum and 1% mixture of penicillin and streptomycin (Gibco). Cells were maintained at 37° C. in a humidified 5% CO2 atmosphere.
To measure the activity of RIPK1 inhibitor in necroptotic cells, HT-29 cells were treated by control DMSO, human TNFα (Peprotech, Rocky Hill, USA), SM-164 (Biovision, California, USA) and a pan-caspase inhibitor Z-VAD-FMK (Invivogen, San Diego, USA). Cells were pretreated with Z-VAD-FMK 20 μM. After 30 min, human TNFα 10 ng/ml, SM-164 100 nM and RIPK1 Inhibitor (0.0001, 0.001, 0.01, 0.02, 0.05, 0.1, 1, 10 uM) were treated for 24 h. Cell viability was measured by Cell Counting Kit 8 (CCK-8) (Dong-in, Seoul, Korea).

| SMILES | IC50 [nM] |
| --- | --- |
| CN1C(=O)[C@@H](NC(=O)n2cc(Cc3ccccc3)cn2)COc2ccnc(F)c21 [Example 32, (S)-4-benzyl-N-(6-fluoro-5-methyl-4-oxo-2,3,4,5-tetrahydropyrido[4,3-b][1,4]oxazepin-3-yl)-1H-pyrazole-1-carboxamide] | < 10 |
| CN1C(=O)[C@@H](NC(=O)n2cc(Cc3cccc(F)c3)cn2)COc2ccccc21 [Example 3, (S)-4-(3-fluorobenzyl)-N-(5-methyl-4-oxo-2,3,4,5-tetrahydrobenzo[b][1,4]oxazepin-3-yl)-4-1H-pyrazole-1-carboxamide] | < 10 |
| CN1C(=O)[C@@H](NC(=O)n2cc(Cc3cccc(F)c3)cn2)COc2ccnc(F)c21 [Example 33, (S)—N-(6-fluoro-5-methyl-4-oxo-2,3,4,5-tetrahydropyrido[4,3-b][1,4]oxazepin-3-yl)-4-(3-fluorobenzyl)-1H-pyrazole-1-carboxamide] | < 100 |
| CN1C(=O)[C@@H](NC(=O)n2cc(Cc3ccccc3)cn2)COc2cnccc21 [Example 24, (S)-4-benzyl-N-(1-methyl-2-oxo-1,2,3,4-tetrahydropyrido[3,4-b][1,4]oxazepin-3-yl)-1H-pyrazole-1-carboxamide] | < 100 |
| Cc1cc2c(cn1)N(C)C(=O)[C@@H](NC(=O)n1cc(Cc3ccccc3)cn1)CO2 [Example 37, (S)-4-benzyl-N-(5,8-dimethyl-4-oxo-2,3,4,5-tetrahydropyrido[4,3-b][1,4]oxazepin-3-yl)-1H-pyrazole-1-carboxamide] | < 10 |
| CN1C(=O)[C@@H](NC(=O)n2cc(Cc3ccccc3)cn2)COc2cccc(F)c21 [Example 12, (S)-4-benzyl-N-(6-fluoro-5-methyl-4-oxo-2,3,4,5-tetrahydrobenzo[b][1,4]oxazepin-3-yl)-1H-pyrazole-1-carboxamide] | < 10 |
